{
  "source": "patent US20020169111A1",
  "about": "“Reversal of multidrug resistance in human colon carcinoma cells” (American Cyanamid Comany, priority 1998, published 2002)",
  "key": {"S1-B1-20 cells": {"tested_on": "S1-B1-20 cells", "test": "Reversal of resistance in P-gp expressing cells, alone or with 21 μM bisantrene", "assay_type": "cell-based, human", "design": "Difference Score: unit not given here", "conditions": "for Per Cent Survival with 21 μM bisantrene / Per Cent Survival Alone / Difference Score: S1-B1-20 cells; for Difference Score: survival alone minus survival with 21 μM bisantrene", "description": "To determine the specificity of FTC for non P-gp multidrug resistance, FTC was tested on S1-B1-20 cells which were selected for resistance to bisantrene and which express high levels of P-gp (Table 9)(Zhang, et al, Oncol. Res. 6291-301 (1994)). […] The 21 μM concentration of bisantrene is not inhibitory to the growth of the cells. Values shown are mean ± standard deviation from triplicate test wells."}, "P-gp expressing cells": {"tested_on": "P-gp expressing cells", "conditions": "P-gp reversal; cited from earlier work"}, "S1-M1-3.2 cells": {"tested_on": "S1-M1-3.2 cells", "conditions": "for Per Cent Survival with 3.2 μM mitoxantrone / Per Cent Survival Alone / Difference Score: S1-M1-3.2 cells; for Per Cent Survival Alone: 3 days; for Difference Score: survival alone minus survival with 3.2 μM mitoxantrone", "description": "One of the first reported molecules with reversing activity was verapamil, a calcium channel blocker. […] Cells were plated into 96-well dishes (100 μl/well) in growth medium supplemented with 5% FBS. […] Reversal agents were tested from 0.1-80 μM (triplicate points per dose). In parallel wells, cells were grown in the presence of the reversal agent alone.\nThe Difference Score is the difference in the percentage of cells surviving when the drug was given alone minus the percentage of cells surviving when the drug was given along with the antitumor agent.\nCell survival was estimated using the Sulforhodamine (SRB) assay."}},
  "note": "Where two headings read alike, the source gives them in different places.",
  "data": [
    {"molecule": "COc1ccc(C(C#N)(CCCCCN2CCc3cc(OC)c(OC)cc3C2)Sc2ccc(C)cc2)cc1OC", "note": "(stereo not drawn) [α-(3,4-dimethoxyphenyl)-3,4-dihydro-6,7-dimethoxy-α-[(4-methylphenyl)thio]-2(1H)-isoquinolineheptanenitrile, reference compound]", "values": [
      {"measurement": "Per Cent Survival with 21 μM bisantrene", "setting": "S1-B1-20 cells; drug 0.1 μM", "result": "92 ± 1", "unit": "Per Cent"},
      {"measurement": "Per Cent Survival Alone", "setting": "S1-B1-20 cells; drug 0.1 μM alone", "result": "99 ± 4", "unit": "Per Cent"},
      {"measurement": "Difference Score", "setting": "S1-B1-20 cells; drug 0.1 μM", "result": 7},
      {"measurement": "Per Cent Survival with 21 μM bisantrene", "setting": "S1-B1-20 cells; drug 0.5 μM", "result": "10 ± 0", "unit": "Per Cent"},
      {"measurement": "Per Cent Survival Alone", "setting": "S1-B1-20 cells; drug 0.5 μM alone", "result": "97 ± 1", "unit": "Per Cent"},
      {"measurement": "Difference Score", "setting": "S1-B1-20 cells; drug 0.5 μM", "result": 87},
      {"measurement": "Per Cent Survival with 21 μM bisantrene", "setting": "S1-B1-20 cells; drug 1 μM", "result": "4 ± 0", "unit": "Per Cent"},
      {"measurement": "Per Cent Survival Alone", "setting": "S1-B1-20 cells; drug 1 μM alone", "result": "94 ± 2", "unit": "Per Cent"},
      {"measurement": "Difference Score", "setting": "S1-B1-20 cells; drug 1 μM", "result": 90},
      {"measurement": "Per Cent Survival with 21 μM bisantrene", "setting": "S1-B1-20 cells; drug 5 μM", "result": "4 ± 0", "unit": "Per Cent"},
      {"measurement": "Per Cent Survival Alone", "setting": "S1-B1-20 cells; drug 5 μM alone", "result": "90 ± 1", "unit": "Per Cent"},
      {"measurement": "Difference Score", "setting": "S1-B1-20 cells; drug 5 μM", "result": 86},
      {"measurement": "Per Cent Survival with 21 μM bisantrene", "setting": "S1-B1-20 cells; drug 10 μM", "result": "4 ± 0", "unit": "Per Cent"},
      {"measurement": "Per Cent Survival Alone", "setting": "S1-B1-20 cells; drug 10 μM alone", "result": "50 ± 1", "unit": "Per Cent"},
      {"measurement": "Difference Score", "setting": "S1-B1-20 cells; drug 10 μM", "result": 46},
      {"measurement": "Per Cent Survival with 21 μM bisantrene", "setting": "S1-B1-20 cells; drug 20 μM", "result": "4 ± 0", "unit": "Per Cent"},
      {"measurement": "Per Cent Survival Alone", "setting": "S1-B1-20 cells; drug 20 μM alone", "result": "14 ± 1", "unit": "Per Cent"},
      {"measurement": "Difference Score", "setting": "S1-B1-20 cells; drug 20 μM", "result": 10},
      {"measurement": "Per Cent Survival with 21 μM bisantrene", "setting": "S1-B1-20 cells; drug 40 μM", "result": "4 ± 0", "unit": "Per Cent"},
      {"measurement": "Per Cent Survival Alone", "setting": "S1-B1-20 cells; drug 40 μM alone", "result": "4 ± 0", "unit": "Per Cent"},
      {"measurement": "Difference Score", "setting": "S1-B1-20 cells; drug 40 μM", "result": 0},
      {"measurement": "Per Cent Survival with 21 μM bisantrene", "setting": "S1-B1-20 cells; drug 80 μM", "result": "4 ± 0", "unit": "Per Cent"},
      {"measurement": "Per Cent Survival Alone", "setting": "S1-B1-20 cells; drug 80 μM alone", "result": "4 ± 0", "unit": "Per Cent"},
      {"measurement": "Difference Score", "setting": "S1-B1-20 cells; drug 80 μM", "result": 0},
      {"measurement": "reversal of resistance in P-gp positive S1-B1-20 cells (in words)", "setting": "S1-B1-20 cells; bisantrene-selected", "result": "reversible"},
      {"measurement": "potency relative to verapamil", "setting": "P-gp expressing cells", "result": "at least 10 fold"},
      {"measurement": "Per Cent Survival with 3.2 μM mitoxantrone", "setting": "S1-M1-3.2 cells; drug 0.1 μM", "result": "98 ± 2", "unit": "Per Cent"},
      {"measurement": "Per Cent Survival Alone", "setting": "S1-M1-3.2 cells; drug 0.1 μM alone", "result": "98 ± 2", "unit": "Per Cent"},
      {"measurement": "Difference Score", "setting": "S1-M1-3.2 cells; drug 0.1 μM", "result": 0},
      {"measurement": "Per Cent Survival with 3.2 μM mitoxantrone", "setting": "S1-M1-3.2 cells; drug 0.5 μM", "result": "98 ± 0", "unit": "Per Cent"},
      {"measurement": "Per Cent Survival Alone", "setting": "S1-M1-3.2 cells; drug 0.5 μM alone", "result": "100 ± 0", "unit": "Per Cent"},
      {"measurement": "Difference Score", "setting": "S1-M1-3.2 cells; drug 0.5 μM", "result": 2},
      {"measurement": "Per Cent Survival with 3.2 μM mitoxantrone", "setting": "S1-M1-3.2 cells; drug 1 μM", "result": "99 ± 2", "unit": "Per Cent"},
      {"measurement": "Per Cent Survival Alone", "setting": "S1-M1-3.2 cells; drug 1 μM alone", "result": "101 ± 1", "unit": "Per Cent"},
      {"measurement": "Difference Score", "setting": "S1-M1-3.2 cells; drug 1 μM", "result": 2},
      {"measurement": "Per Cent Survival with 3.2 μM mitoxantrone", "setting": "S1-M1-3.2 cells; drug 5 μM", "result": "63 ± 8", "unit": "Per Cent"},
      {"measurement": "Per Cent Survival Alone", "setting": "S1-M1-3.2 cells; drug 5 μM alone", "result": "78 ± 8", "unit": "Per Cent"},
      {"measurement": "Difference Score", "setting": "S1-M1-3.2 cells; drug 5 μM", "result": 15},
      {"measurement": "Per Cent Survival with 3.2 μM mitoxantrone", "setting": "S1-M1-3.2 cells; drug 10 μM", "result": "36 ± 11", "unit": "Per Cent"},
      {"measurement": "Per Cent Survival Alone", "setting": "S1-M1-3.2 cells; drug 10 μM alone", "result": "39 ± 18", "unit": "Per Cent"},
      {"measurement": "Difference Score", "setting": "S1-M1-3.2 cells; drug 10 μM", "result": 3},
      {"measurement": "Per Cent Survival with 3.2 μM mitoxantrone", "setting": "S1-M1-3.2 cells; drug 20 μM", "result": "21 ± 10", "unit": "Per Cent"},
      {"measurement": "Per Cent Survival Alone", "setting": "S1-M1-3.2 cells; drug 20 μM alone", "result": "21 ± 13", "unit": "Per Cent"},
      {"measurement": "Difference Score", "setting": "S1-M1-3.2 cells; drug 20 μM", "result": 0},
      {"measurement": "Per Cent Survival with 3.2 μM mitoxantrone", "setting": "S1-M1-3.2 cells; drug 40 μM", "result": "16 ± 4", "unit": "Per Cent"},
      {"measurement": "Per Cent Survival Alone", "setting": "S1-M1-3.2 cells; drug 40 μM alone", "result": "16 ± 5", "unit": "Per Cent"},
      {"measurement": "Difference Score", "setting": "S1-M1-3.2 cells; drug 40 μM", "result": 0},
      {"measurement": "Per Cent Survival with 3.2 μM mitoxantrone", "setting": "S1-M1-3.2 cells; drug 80 μM", "result": "13 ± 2", "unit": "Per Cent"},
      {"measurement": "Per Cent Survival Alone", "setting": "S1-M1-3.2 cells; drug 80 μM alone", "result": "13 ± 1", "unit": "Per Cent"},
      {"measurement": "Difference Score", "setting": "S1-M1-3.2 cells; drug 80 μM", "result": 0},
      {"measurement": "reversal activity in S1-M1-3.2 cells (in words)", "setting": "S1-M1-3.2 cells; with mitoxantrone", "result": "not reversed"}
    ]}
  ]
}
